Structures can show the parent of a compound that is named as a salt. Where two headings read alike, the source gives them in different places.

Experiment [1] has as its system KRAS G12D mutant AGS cells. Put plainly: Proliferation inhibition of AGS cells, CellTiter-Glo assay. The format is cell-based, human. The settings on record: 3 days, CTG, read-out: AGS IC50/nM. As for the experimental part: AGS cells (Nanjing Kebai Biotechnology Co., Ltd., catalog number CBP60476, adherent, culture medium (F12K Nutrient Mixture+10% FBS (GIBCO, Cat#10091-148) were cultured at 37°C, 5% CO2, and 95% humidity at a density of 1500 cells/well. Cells in the logarithmic growth phase were harvested and counted using a Countstar automated cell counter based on the classic trypan blue staining method to ensure cell viability was above 90%. The cell concentration was adjusted, and 80 µL of cell suspension was added to each 96-well clear flat-bottomed, black-walled plate (Greiner, Cat# 655090). The cells in the 96-well plates were then cultured at 37°C and 5% CO2.
Drug preparation for IC50 assay: A 5-fold drug solution was prepared using culture medium. 20 µL of the drug solution was added to each well of a 96-well plate seeded with cells to achieve a working concentration of up to 10 µM, with a 3 × dilution, and a total of 9 concentrations. 2 replicate wells for each drug concentration were set. The cells in the drug-treated 96-well plates were cultured at 37°C and 5% CO2 for additional 3 days and then CTG assay were performed.
The cell plate was equilibrated to room temperature for 30 minutes and the CTG reagent (CellTiter-Glo® Luminescent Cell Viability Assay (Promega, Cat# G7573)) was thawed. 50 µL of CTG solution was added to each well and the plate was shaken on an orbital shaker for 2 minutes to lyse the cells. The cell plate was placed at room temperature for 10 minutes to stabilize the cryo-luminescence signal and the cryo-luminescence value was read (EnVision® Multifunctional microplate reader, PerkinElmer #2105).
(§1) Data was analyzed using GraphPad Prism software. The dose-response-inhibition equation was used to fit the data to obtain the dose-response curve, and the IC50 value (nM) was calculated accordingly. [formula]

Experiment [2] deals with KRAS G12V mutant NCI-H727 cells. Put plainly: Proliferation inhibition of NCI-H727 cells, 3D CellTiter-Glo assay (Method B). The format is cell-based, human. The settings on record: Method B, 3D culture with 0.65% methylcellulose, 5 days, CTG, read-out: NCI-H727 IC50/nM. As for the experimental part: NCI-H727 cells (Nanjing Kebai Biotechnology Co., Ltd., catalog number CBP60182, adherent, culture medium RPMI-1640+10%FBS (GIBCO, Cat#10091-148)) were cultured at 37°C, 5% CO2, and 95% humidity.
3D cell viability assay: Cells in the logarithmic growth phase were harvested and counted using a platelet counter. Cell viability was assessed using the trypan blue exclusion method to ensure a viability of over 90%. The 3D cell culture medium was prepared by adding 1% MC (methylcellulose, Sigma, Cat#M0512) to RPMI-1640 medium and 10% FBS. The cell concentration was adjusted to approximately 25,000 cells/mL using the 3D medium, and the methylcellulose (MC) content was set to 0.65%. Then, 80 µL of cell suspension was added to each 96-well clear, flat-bottomed, black-walled plate (Greiner, Cat# 655096). The cells in the 96-well plates were cultured overnight at 37°C and 5% CO2.
Drug preparation for IC50 assay: A 5-fold drug solution was prepared using culture medium. 20 µL of the drug solution was added to each well of a 96-well plate seeded with cells to achieve a working concentration of up to 10 µM, with a 3× dilution, and 9 concentrations. 2 replicate wells for each drug concentration were set. The cells in the drug-treated 96-well plates were cultured at 37°C and 5% CO2 for additional 5 days, then CTG assay (CellTiter-Glo® Luminescent Cell Viability Assay (Promega, Cat#G7573)) were performed.
The cell plate was equilibrated to room temperature for 30 minutes and the CTG reagent was thawed. 50 µL of CTG solution was added to each well for detection and the plate was shaken on an orbital shaker for 5 minutes to lyse the cells. The cell plate was then placed at room temperature for 25 minutes to stabilize the cryo-luminescence signal, and the cryo-luminescence value was read (EnVision® multi-plate reader, PerkinElmer#2105).
as §1

On to `[2H]C([2H])([2H])N1CC/C(=C\F)[C@](C)(COc2nc(N3Cc4c(F)c(C(=O)N(C)C)nn4CC[C@@H]3C)c3cc(CC)c(-c4c(F)ccc5sc(N)c(C#N)c45)c(F)c3n2)C1` (single isomer, unassigned) [Example 181A], for which the IC50 in experiment [1] (Homo sapiens, AGS, 72 h) is < 1.5 nM.

Consider `CCN1CCC(=CF)C(C)(COc2nc(N3Cc4cc(C(=O)N(C)CCF)nn4CCC3C)c3cc(Cl)c(-c4c(F)ccc5sc(N)c(C#N)c45)c(F)c3n2)C1` (stereo not shown) [Example 264A], for which the IC50 turned out to be 2.3 nM in experiment [1] (Homo sapiens, AGS, 72 h) and 2.8 nM in experiment [2] (Homo sapiens, NCI-H727, 120 h).

Take `[2H]C([2H])([2H])N1CCC(=CF)C(C)(COc2nc(N3Cc4cc(C(=O)N5CCOCC5)nn4CCC3C)c3cc(CC)c(-c4c(F)ccc5sc(N)c(C#N)c45)c(F)c3n2)C1` (stereo not shown) [Example 263A]: the IC50 in experiment [1] (Homo sapiens, AGS, 72 h) worked out at 2.5 nM; in experiment [2] (Homo sapiens, NCI-H727, 120 h), 2.5 nM.

Turning to `[2H]C([2H])([2H])N1CCC(=CF)C(C)(COc2nc(N3Cc4cc(C(=O)N(C)C)nn4CCC3C)c3cc(Cl)c(-c4c(F)ccc5sc(N)c(C#N)c45)c(Cl)c3n2)C1` (stereo not shown) [Example 197], the IC50 in experiment [1] (Homo sapiens, AGS, 72 h) was determined as 3 nM; in experiment [2] (Homo sapiens, NCI-H727, 120 h), 2.1 nM.

Consider `CCN1CC/C(=C\F)[C@](C)(COc2nc(N3Cc4c(COC)c(C(=O)N(C)C)nn4CC[C@@H]3C)c3cc(Cl)c(-c4c(F)ccc5sc(N)c(C#N)c45)c(OC)c3n2)C1` [Example 273A], for which the IC50 in experiment [1] (Homo sapiens, AGS, 72 h) was found to be 40.6 nM; in experiment [2] (Homo sapiens, NCI-H727, 120 h), 26.6 nM.

On to `CN1CC/C(=C\F)[C@](C)(COc2nc(N3CCOC[C@@](C)(O)C3)c3cc(Cl)c(-c4c(F)ccc5sc(N)c(C#N)c45)c(F)c3n2)C1` (atropisomer, axis not shown; (Ra)) [Example 85A, (Ra)-2-amino-4-(6-chloro-8-fluoro-2-(((S,E)-4-(fluoromethylene)-1,3-dimethylpiperidine-3-yl)methoxy)-4-((S)-6-hydroxy-6-methyl-1,4-oxazacycloheptane-4-yl)quinazoline-7-yl)-5-fluorobenzo[b]thiophene-3-carbonitrile formate·formic acid salt], for which the IC50 in experiment [1] (Homo sapiens, AGS, 72 h) came out at 22.7 nM; in experiment [2] (Homo sapiens, NCI-H727, 120 h), 17.4 nM.

Take `COCc1cc2c(N3Cc4cc(C(=O)N(C)C)nn4CC[C@@H]3C)nc(OC[C@]3(C)CN(C)CC/C3=C\F)nc2c(F)c1-c1c(F)ccc2sc(N)c(C#N)c12` (single isomer, unassigned) [Example 226A]: the IC50 in experiment [1] (Homo sapiens, AGS, 72 h) is 19.7 nM; in experiment [2] (Homo sapiens, NCI-H727, 120 h) it was 39.8 nM.

Turning to `CCN1CC/C(=C\F)[C@](C)(COc2nc(N3Cc4cc(C(=O)N5CC(F)C5)nn4CC[C@@H]3C)c3cc(Cl)c(-c4c(F)ccc5sc(N)c(C#N)c45)c(F)c3n2)C1` [Example 277A], the IC50 in experiment [1] (Homo sapiens, AGS, 72 h) was < 1.5 nM; in experiment [2] (Homo sapiens, NCI-H727, 120 h) it was 1.8 nM.

For `[2H]C([2H])([2H])N1CC/C(=C\F)[C@](C)(COc2nc(N3CCOC[C@@](C)(O)C3)c3cc(C#N)c(-c4c(F)ccc5sc(N)c(C#N)c45)c(F)c3n2)C1` [Example 88, 7-(2-Amino-3-cyano-5-fluorobenzo[b]thiophene-4-yl)-8-fluoro-2-(((S,E)-4-(fluoromethylene)-3-methyl-1-(methyl-d3)piperidine-3-yl)methoxy)-4-((S)-6-hydroxy-6-methyl-1,4-oxazacycloheptane-4-yl)quinazoline-6-carbonitrile], in experiment [2] (Homo sapiens, NCI-H727, 120 h), the IC50 was determined as 23.3 nM.

With `[2H]C([2H])([2H])N1CC[C@H](C(F)F)[C@](C)(COc2nc(N3CCOC[C@@](C)(O)C3)c3cc(C#N)c(-c4c(F)ccc5sc(N)c(C#N)c45)c(F)c3n2)C1` [Example 89, 7-(2-Amino-3-cyano-5-fluorobenzo[b]thiophene-4-yl)-2-(((3S,4S)-4-(difluoromethyl)-3-methyl-1-(methyl-d3)piperidine-3-yl)methoxy)-8-fluoro-4-((S)-6-hydroxy-6-methyl-1,4-oxazacycloheptane-4-yl)quinazoline-6-carbonitrile], the IC50 in experiment [2] (Homo sapiens, NCI-H727, 120 h) is 12.4 nM.

As to `[2H]C([2H])([2H])N1CC/C(=C\F)[C@](C)(COc2nc(N3CCCn4nc(C(=O)N(C)C)c(Cl)c4C3)c3cc(Cl)c(-c4c(F)ccc5sc(N)c(C#N)c45)c(C)c3n2)C1` (single isomer, unassigned) [Example 179A], the IC50 in experiment [1] (Homo sapiens, AGS, 72 h) turned out to be 4.2 nM.

In the case of `CN1CC/C(=C\F)[C@](C)(COc2nc3c(F)c(-c4cccc5sc(N)c(C#N)c45)c(Cl)cc3c(N3CCCn4nc(C(=O)N(C)C)cc4C3)c2C#N)C1` [Example 102], the IC50 in experiment [2] (Homo sapiens, NCI-H727, 120 h) was 4270 nM.

With `[2H]C([2H])([2H])N1CC/C(=C\F)[C@](C)(COc2nc(N3Cc4cc(C(=O)N(C)C)nn4CC[C@@H]3C)c3cc(Cl)c(-c4c(F)ccc5sc(N)c(C#N)c45)c(C)c3n2)C1` (single isomer, unassigned) [Example 177A], the IC50 in experiment [1] (Homo sapiens, AGS, 72 h) is < 1.5 nM.

Take `CN1CC/C(=C\F)[C@](C)(COc2nc(N3CCOC[C@@](C)(O)C3)c3cc([N+](=O)[O-])c(-c4cccc5sc(N)c(C#N)c45)c(F)c3n2)C1` [Example 87]: the IC50 in experiment [2] came to 9 nM.

Turning to `CN1CC/C(=C\F)[C@](C)(COc2nc(N3CCCn4nc(C(=O)N(C)C)cc4C3)c3cc(C#N)c(-c4cccc5sc(N)c(C#N)c45)c(F)c3n2)C1` [Example 103], the IC50 in experiment [1] (Homo sapiens, AGS, 72 h) was 301 nM.

Regarding `CN1CC/C(=C\F)[C@](C)(COc2nc(N3CCCn4nc(C(=O)N(C)C)c(Cl)c4C3)c3cc(C4CC4)c(-c4c(F)ccc5sc(N)c(C#N)c45)c(F)c3n2)C1` (single isomer, unassigned) [Example 161B], the IC50 in experiment [1] turned out to be 33.5 nM.

For the molecule `CN1CC/C(=C\F)[C@](C)(COc2nc(N3CCCn4nc(C(=O)N(C)C)nc4C3)c3cc(C(F)(F)F)c(-c4cccc5sc(N)c(C#N)c45)c(F)c3n2)C1` [Example 101], the IC50 in experiment [1] (Homo sapiens, AGS, 72 h) was found to be 100 nM.

Turning to `CN1CC/C(=C\F)[C@](C)(COc2nc(N3CCOC[C@@](C)(O)C3)c3cc([N+](=O)[O-])c(-c4cccc5sc(N)c(C#N)c45)c(F)c3n2)C1` (atropisomer, axis not shown; (Ra)) [Example 87A], in experiment [2], the IC50 came out at 3.8 nM.

Take `CN1CC[C@H](C(F)F)[C@](C)(COc2nc(N3CCOC[C@@](C)(O)C3)c3cc(C(F)(F)F)c(-c4c(F)ccc5sc(N)c(C#N)c45)c(F)c3n2)C1` (single isomer, unassigned) [Example 65A]: the IC50 in experiment [2] was < 1.5 nM.

As for `CN1CC[C@H](C(F)F)[C@](C)(COc2nc(N3CCOC[C@@](C)(O)C3)c3cc(C(F)(F)F)c(-c4c(F)ccc5sc(N)c(C#N)c45)c(F)c3n2)C1` (single isomer, unassigned) [Example 65B], the IC50 in experiment [2] came out at 39.3 nM.

Consider `CN1CCC(=CF)C(C)(COc2nc(N3CCC(C#N)C(O)C3)c3cc(C(F)(F)F)c(-c4cccc5sc(N)c(C#N)c45)c(F)c3n2)C1` (stereo not shown) [Example 155], for which, in experiment [2], the IC50 worked out at 21 nM.

In the case of `[2H]C([2H])([2H])N1CC[C@H](C(F)F)[C@](C)(COc2nc(N3CCOC[C@@](C)(O)C3)c3cc([N+](=O)[O-])c(-c4cccc5sc(N)c(C#N)c45)c(F)c3n2)C1` [Example 86], in experiment [1] (Homo sapiens, AGS, 72 h), the IC50 stood at 8.7 nM.

Turning to `CN1CC[C@H](C(F)F)[C@](C)(COc2nc(N3CCOC[C@@](C)(O)C3)c3cc([N+](=O)[O-])c(-c4cccc5sc(N)c(C#N)c45)c(F)c3n2)C1` [Example 86], the IC50 in experiment [2] is 4.5 nM.

On to `[2H]C([2H])([2H])N1CC/C(=C\F)[C@](C)(COc2nc(N3CCOC[C@@](C)(O)C3)c3cc(C#N)c(-c4cccc5sc(N)c(C#N)c45)c(F)c3n2)C1` [Example 90, 7-(2-Amino-3-cyanobenzo[b]thiophene-4-yl)-8-fluoro-2-(((S,E)-4-(fluoromethylene)-3-methyl-1-(methyl-d3)piperidine-3-yl)methoxy)-4-((S)-6-hydroxy-6-methyl-1,4-oxazacycloheptane-4-yl)quinazoline-6-carbonitrile], for which the IC50 in experiment [2] (Homo sapiens, NCI-H727, 120 h) was 58.3 nM.

The record behind these values is patent EP4775577A1, “RAS INHIBITOR” (Tyligand Bioscience (Shanghai) Limited, priority 2023, dated 2025).
